Laboratory results: US10287298B2, “Nitrogen-containing analogs of salinomycin, synthesis and use against cancer stem cells and malaria” (Centre National de la Recherche Scientifique (CNRS), priority 2014, dated 2019)

Tested on: HMLER CD24low cells
Test: Reactive Oxygen Species (ROS) levels by flow cytometry (CM-H2DCF-DA)
Format: cell-based, Human
Details: cells treated for 48 h
Method: Reactive Oxygen Species (ROS) levels were measured by flow cytometry or by confocal scanning immunofluorescence microscopy using CM-H2DCF-DA (C6827, invitrogen). Briefly, U2OS and HMLER CD24low cells were treated as indicated in FIG. 11 (30 nM, 500 nM or 1 μM of salinomycine, AM5 or AM23 or untreated during 48 h). Then, these cells were trypsined and incubated with 5 μM CM-H2DCF-DA at 37° C. for 40 min, washed once with PBS and were counterstained with DAPI (0.5 μg/ml) to exclude non-viable cells. The mean fluorescence intensity was determined as ROS production by flow cytometry with LSRFortessa™ cytometer (BD Bioscience, San Jose, Calif.). For immunofluorescence microscopy analysis, cells were seeded on coverslips and were treated with salinomycine derivatives (injection in culture medium then treatment during 24 h, 48 h and 72 h). LysoTracker® Red DND-99 (L-7528, Life technologies) was used to visualize lysosomes. Then, cells were fixed with 4% PFA/PBS. DAPI was used to visualize nuclear DNA. Cell images were obtained using a Deltavision real-time microscope (Applied Precision) or an ApoTome.2 microscope (Zeiss). ImageJ was used for further image processing.
FACS analysis of ROS in cells treated for 48 h is represented in FIG. 17.

C#CCN[C@@H]1C=C[C@]2(O[C@H]([C@@H](CC)C(=O)[C@@H](C)[C@@H](O)[C@H](C)C3O[C@@H](C(CC)C(=O)O)CC[C@@H]3C)[C@@H](C)C[C@H]2C)O[C@@]12CC[C@@](C)([C@H]1CC[C@](O)(CC)[C@H](C)O1)O2 (stereo partly shown) [AM5, Sal-Propargylamine]
ROS production under pharmacological inhibition of Cathepsin B: prevents AM5 from inducing ROS production
